Experiments:
11β-HSD1 [1] = molecular target: T1, 11β-HSD1 (Homo sapiens (Human), UniProt P28845); conditions: comparator compounds; IC50 in Biological Test Example 4 divided by IC50 in Biological Test Example 1
Method: The assay began by dispensing 49 μl of microsome solution into 96-well polypropylene plates and adding 1 μl of the test compounds in DMSO, previously diluted in half-log increments (8 points) starting at 1.0 mM. […] The plates were incubated for 120 minutes at rt, and the reaction was quenched with the addition of 100 μl acetonitrile with 20 mM cortisone and 20 mM cortisol. After a ten minute incubation at rt, 100 μl of each well was filtered through a MultiScreen HTS, HV filter plate (Millipore) and diluted with 100 μl of reaction buffer without human plasma.

11β-HSD1 [2] = molecular target: T1, 11β-HSD1; conditions: Biological Test 3, human liver microsomes, HTRF
Method: Briefly, compounds were incubated for 1 hour at 37° C. in Tris buffer (20 mM tris, 5 mM EDTA, pH 6.0) containing NADPH (200 μM) and cortisone (80 nM). Cortisol generated in the reaction is then detected with a competitive immunoassay, involving two HTRF conjugates: cortisol linked to XL665 and anti-cortisol antibody labeled with Europium cryptate. The incubation period for detection reaction was typically 2 hours. […] The ratio of the two emission signals was then calculated (Em665*10000/Em615). […] Each assay also contained a calibration curve with cortisol to transform the fluorescent data into cortisol concentrations. Percent inhibition of each compound was determined relative to the carbenoxolone signal.

T1 sequence (P28845 whole entry): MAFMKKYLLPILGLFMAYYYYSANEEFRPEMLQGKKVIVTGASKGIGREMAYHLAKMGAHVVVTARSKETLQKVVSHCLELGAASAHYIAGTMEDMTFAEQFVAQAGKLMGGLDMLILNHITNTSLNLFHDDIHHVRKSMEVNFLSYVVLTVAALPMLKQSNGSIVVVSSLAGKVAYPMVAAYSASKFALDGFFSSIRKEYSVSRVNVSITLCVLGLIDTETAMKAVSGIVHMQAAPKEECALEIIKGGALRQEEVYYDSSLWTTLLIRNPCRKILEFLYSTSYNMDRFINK

## COc1nc2ccc(-c3ccc([C@H](C)N4CC[C@](CC(C)(C)O)(c5ccccc5)OC4=O)cc3)cn2n1 [Example 9, (S)-6-(2-Hydroxy-2-methyl-propyl)-3-{(S)-1-[4-(2-methoxy-[1,2,4]triazolo[1,5-a]pyridin-6-yl)-phenyl]-ethyl}-6-phenyl-[1,3]oxazinan-2-one]
11β-HSD1 [1]
  Shift: 21.45
11β-HSD1 [2]
  IC50: 54 nM

## Cc1nc2cc(-c3ccc([C@H](C)N4CC[C@](CC(C)(C)O)(c5ccccc5)OC4=O)cc3)ccn2n1 [Example 7, (S)-6-(2-Hydroxy-2-methyl-propyl)-3-{(5)-1-[4-(2-methyl-[1,2,4]triazolopyridin-7-yl)-phenyl]-ethyl}-6-phenyl-[1,3]oxazinan-2-one]
11β-HSD1 [1]
  Shift: 42.43
11β-HSD1 [2]
  IC50: 31 nM
